Test results reported in patent US5116981A, “Antiinflammatory leukotriene B4 analogs” (The Upjohn Company, priority 1989, dated 1992).

Experiments:
[1] = stability of the isolated product on storage; format: physicochemical; conditions: for stability in solution: methanol solution; for stability of the neat isolated product: as isolated oil
[2] = test system: chemotactic response of equimolar concentrations of LTB4; conditions: cited from earlier work
[3] = test system: neutrophil; conditions: cited from earlier work

stability in solution [1] | stability of the neat isolated product [1] | Compound | also measured
stable as a methanol solution |  | CCCCC/C=C\CC(O)C#Cc1cccc(CC(O)CCCC(=O)O)c1 (stereo not shown) [Example 24, Benzenehexanoic acid, delta-hydroxy-3-[(3-hydroxy-5-undecen-1-ynyl)]] | 
stable methanol solution | unstable oil | CCCCC/C=C\CC(O)/C=C/c1cccc(CC(O)CCCC(=O)O)n1 (stereo not shown) [Example 35, 2-Pyridinehexanoic acid, delta-hydroxy-6-(3-hydroxy-1,5-undecadienyl) -] | 

Further lines, the molecule ahead of its results:

Compound | stability in solution [1] | stability of the neat isolated product [1] | also measured
CCCCC/C=C\CC(O)C#Cc1cccc(CC(O)CCCC(=O)O)n1 (stereo not shown) [Example 36, 2-Pyridinehexanoic acid, delta-hydroxy-6-(3-hydroxy-5-undecen-1-ynyl)-] |  | unstable pale oil | 
CCCCC/C=C\C[C@H](/C=C/C=C/C=C\[C@H](CCCC(=O)O)OC(C)=O)OC(C)=O [LTB4 diacetate] |  |  | inhibition of chemotactic response to LTB4 [2]: competitively inhibit chemotactic response
CCCCCC=CCC(O)C=CC=CC=CC(O)CCCC(=O)N(C)C (stereo not shown) [dimethylamide of LTB4] |  |  | agonist activity ([3]; at the concentrations that inhibit degranulation): no appreciable agonist activity; inhibition of neutrophil degranulation induced by LTB4 [3]: inhibit neutrophil degranulation induced by LTB4
